{"source": "PubChem BioAssay AID1963975", "about": "(Molecular Pharmacology Branch, DTP, NCI, 2024);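 note: spheroids exposed to agents for 7 days before viability read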;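 for viability, T/C: 100% = DMSO vehicle treated spheroids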", "system": "624824-186-R-J2-PDC multicell spheroids, viability", "assay": "Anticancer human tumor 624824-186-R-J2-PDC patient-derived colon adenocarcinoma cell line growth inhibition [PI3K]", "details": "for IC50: curve of first compound; for viability, T/C: stronger effect = lower value", "how_it_was_run": "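Spheroid viability read-out. Co-cultures contained the tumor line plus HUVEC and human MSCs. Each agent was paired with a PI3K inhibitor (inavolisib, alpelisib, duvelisib, copanlisib) across half-log dilutions starting at clinical Cmax, or at 10 microM when Cmax was unknown.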", "key": {"[1]": {"details": "second compound 0.0316 µM, first compound 0.0316 µM"}, "[2]": {"details": "second compound 0.0316 µM, first compound 0.1 µM"}, "[3]": {"details": "second compound 0.0316 µM, first compound 0.316 µM"}, "[4]": {"details": "second compound 0.0316 µM, first compound 1 µM"}, "[5]": {"details": "second compound 0.0316 µM, first compound 3.16 µM"}, "[6]": {"details": "second compound 0.0316 µM, first compound 10 µM"}, "[7]": {"details": "second compound 0.1 µM, first compound 0.0316 µM"}, "[8]": {"details": "second compound 0.1 µM, first compound 0.1 µM"}, "[9]": {"details": "second compound 0.1 µM, first compound 0.316 µM"}, "[10]": {"details": "second compound 0.1 µM, first compound 1 µM"}, "[11]": {"details": "second compound 0.1 µM, first compound 3.16 µM"}, "[12]": {"details": "second compound 0.1 µM, first compound 10 µM"}, "[13]": {"details": "second compound 0.316 µM, first compound 0.0316 µM"}, "[14]": {"details": "second compound 0.316 µM, first compound 0.1 µM"}, "[15]": {"details": "second compound 0.316 µM, first compound 0.316 µM"}, "[16]": {"details": "second compound 0.316 µM, first compound 1 µM"}, "[17]": {"details": "second compound 0.316 µM, first compound 3.16 µM"}, "[18]": {"details": "second compound 0.316 µM, first compound 10 µM"}, "[19]": {"details": "second compound 1 µM, first compound 0.0316 µM"}, "[20]": {"details": "second compound 1 µM, first compound 0.1 µM"}, "[21]": {"details": "second compound 1 µM, first compound 0.316 µM"}, "[22]": {"details": "second compound 1 µM, first compound 1 µM"}, "[23]": {"details": "second compound 1 µM, first compound 3.16 µM"}, "[24]": {"details": "second compound 1 µM, first compound 10 µM"}, "[25]": {"details": "second compound 3.16 µM, first compound 0.0316 µM"}, "[26]": {"details": "second compound 3.16 µM, first compound 0.1 µM"}, "[27]": {"details": "second compound 3.16 µM, first compound 0.316 µM"}, "[28]": {"details": "second compound 3.16 µM, first compound 1 µM"}, "[29]": {"details": "second compound 3.16 µM, first compound 3.16 µM"}, "[30]": {"details": "second compound 3.16 µM, first compound 10 µM"}, "[31]": {"details": "second compound 10 µM, first compound 0.0316 µM"}, "[32]": {"details": "second compound 10 µM, first compound 0.1 µM"}, "[33]": {"details": "second compound 10 µM, first compound 0.316 µM"}, "[34]": {"details": "second compound 10 µM, first compound 1 µM"}, "[35]": {"details": "second compound 10 µM, first compound 3.16 µM"}, "[36]": {"details": "second compound 10 µM, first compound 10 µM"}}}
{"smiles": "CC(Cn1ccc(-c2ccc(C#N)c(Cl)c2)n1)NC(=O)c1cc(C(C)O)[nH]n1", "note": "(centres undefined) + CC(Nc1ncnc2nc[nH]c12)c1cc2cccc(Cl)c2c(=O)n1-c1ccccc1", "values": [{"measurement": "IC50", "setting": "second compound 0.0316 µM", "value": "> 10", "unit": "µM"}, {"measurement": "IC50", "setting": "second compound 0.1 µM", "value": "> 10", "unit": "µM"}, {"measurement": "IC50", "setting": "second compound 0.316 µM", "value": "> 10", "unit": "µM"}, {"measurement": "IC50", "setting": "second compound 1 µM", "value": "> 10", "unit": "µM"}, {"measurement": "IC50", "setting": "second compound 3.16 µM", "value": "> 10", "unit": "µM"}, {"measurement": "IC50", "setting": "second compound 10 µM", "value": "> 10", "unit": "µM"}, {"measurement": "viability, T/C", "setting": "[1]", "value": 98.2, "unit": "%"}, {"measurement": "viability, T/C", "setting": "[2]", "value": 90.6, "unit": "%"}, {"measurement": "viability, T/C", "setting": "[3]", "value": 96.1, "unit": "%"}, {"measurement": "viability, T/C", "setting": "[4]", "value": 106, "unit": "%"}, {"measurement": "viability, T/C", "setting": "[5]", "value": 99.2, "unit": "%"}, {"measurement": "viability, T/C", "setting": "[6]", "value": 113, "unit": "%"}, {"measurement": "viability, T/C", "setting": "[7]", "value": 92.1, "unit": "%"}, {"measurement": "viability, T/C", "setting": "[8]", "value": 93.6, "unit": "%"}, {"measurement": "viability, T/C", "setting": "[9]", "value": 114, "unit": "%"}, {"measurement": "viability, T/C", "setting": "[10]", "value": 108, "unit": "%"}, {"measurement": "viability, T/C", "setting": "[11]", "value": 98.5, "unit": "%"}, {"measurement": "viability, T/C", "setting": "[12]", "value": 115, "unit": "%"}, {"measurement": "viability, T/C", "setting": "[13]", "value": 111, "unit": "%"}, {"measurement": "viability, T/C", "setting": "[14]", "value": 102, "unit": "%"}, {"measurement": "viability, T/C", "setting": "[15]", "value": 84.7, "unit": "%"}, {"measurement": "viability, T/C", "setting": "[16]", "value": 97.5, "unit": "%"}, {"measurement": "viability, T/C", "setting": "[17]", "value": 107, "unit": "%"}, {"measurement": "viability, T/C", "setting": "[18]", "value": 100, "unit": "%"}, {"measurement": "viability, T/C", "setting": "[19]", "value": 105, "unit": "%"}, {"measurement": "viability, T/C", "setting": "[20]", "value": 106, "unit": "%"}, {"measurement": "viability, T/C", "setting": "[21]", "value": 95.2, "unit": "%"}, {"measurement": "viability, T/C", "setting": "[22]", "value": 94.5, "unit": "%"}, {"measurement": "viability, T/C", "setting": "[23]", "value": 80.5, "unit": "%"}, {"measurement": "viability, T/C", "setting": "[24]", "value": 92.4, "unit": "%"}, {"measurement": "viability, T/C", "setting": "[25]", "value": 112, "unit": "%"}, {"measurement": "viability, T/C", "setting": "[26]", "value": 102, "unit": "%"}, {"measurement": "viability, T/C", "setting": "[27]", "value": 85.5, "unit": "%"}, {"measurement": "viability, T/C", "setting": "[28]", "value": 102, "unit": "%"}, {"measurement": "viability, T/C", "setting": "[29]", "value": 110, "unit": "%"}, {"measurement": "viability, T/C", "setting": "[30]", "value": 115, "unit": "%"}, {"measurement": "viability, T/C", "setting": "[31]", "value": 103, "unit": "%"}, {"measurement": "viability, T/C", "setting": "[32]", "value": 106, "unit": "%"}, {"measurement": "viability, T/C", "setting": "[33]", "value": 110, "unit": "%"}, {"measurement": "viability, T/C", "setting": "[34]", "value": 115, "unit": "%"}, {"measurement": "viability, T/C", "setting": "[35]", "value": 106, "unit": "%"}, {"measurement": "viability, T/C", "setting": "[36]", "value": 107, "unit": "%"}]}
{"smiles": "CC1(C)CCC(Nc2ncc(C(F)(F)F)c(-c3c[nH]c4c(P(C)(C)=O)c(C#N)ccc34)n2)CN1", "note": "(centres undefined) + CC(Nc1ncnc2nc[nH]c12)c1cc2cccc(Cl)c2c(=O)n1-c1ccccc1", "values": [{"measurement": "IC50", "setting": "second compound 0.0316 µM", "value": 3.55, "unit": "µM"}, {"measurement": "IC50", "setting": "second compound 0.1 µM", "value": 4.27, "unit": "µM"}, {"measurement": "IC50", "setting": "second compound 0.316 µM", "value": 3.13, "unit": "µM"}, {"measurement": "IC50", "setting": "second compound 1 µM", "value": 3.73, "unit": "µM"}, {"measurement": "IC50", "setting": "second compound 3.16 µM", "value": 2.99, "unit": "µM"}, {"measurement": "IC50", "setting": "second compound 10 µM", "value": 2.97, "unit": "µM"}, {"measurement": "viability, T/C", "setting": "[1]", "value": 81.1, "unit": "%"}, {"measurement": "viability, T/C", "setting": "[2]", "value": 93.2, "unit": "%"}, {"measurement": "viability, T/C", "setting": "[3]", "value": 102, "unit": "%"}, {"measurement": "viability, T/C", "setting": "[4]", "value": 108, "unit": "%"}, {"measurement": "viability, T/C", "setting": "[5]", "value": 54.9, "unit": "%"}, {"measurement": "viability, T/C", "setting": "[6]", "value": 6.48, "unit": "%"}, {"measurement": "viability, T/C", "setting": "[7]", "value": 94.1, "unit": "%"}, {"measurement": "viability, T/C", "setting": "[8]", "value": 92.3, "unit": "%"}, {"measurement": "viability, T/C", "setting": "[9]", "value": 96.3, "unit": "%"}, {"measurement": "viability, T/C", "setting": "[10]", "value": 104, "unit": "%"}, {"measurement": "viability, T/C", "setting": "[11]", "value": 65.7, "unit": "%"}, {"measurement": "viability, T/C", "setting": "[12]", "value": 6.11, "unit": "%"}, {"measurement": "viability, T/C", "setting": "[13]", "value": 91, "unit": "%"}, {"measurement": "viability, T/C", "setting": "[14]", "value": 76.4, "unit": "%"}, {"measurement": "viability, T/C", "setting": "[15]", "value": 90.8, "unit": "%"}, {"measurement": "viability, T/C", "setting": "[16]", "value": 108, "unit": "%"}, {"measurement": "viability, T/C", "setting": "[17]", "value": 49.7, "unit": "%"}, {"measurement": "viability, T/C", "setting": "[18]", "value": 5.05, "unit": "%"}, {"measurement": "viability, T/C", "setting": "[19]", "value": 108, "unit": "%"}, {"measurement": "viability, T/C", "setting": "[20]", "value": 94.1, "unit": "%"}, {"measurement": "viability, T/C", "setting": "[21]", "value": 100, "unit": "%"}, {"measurement": "viability, T/C", "setting": "[22]", "value": 98.7, "unit": "%"}, {"measurement": "viability, T/C", "setting": "[23]", "value": 57.6, "unit": "%"}, {"measurement": "viability, T/C", "setting": "[24]", "value": 4.82, "unit": "%"}, {"measurement": "viability, T/C", "setting": "[25]", "value": 91.2, "unit": "%"}, {"measurement": "viability, T/C", "setting": "[26]", "value": 94.7, "unit": "%"}, {"measurement": "viability, T/C", "setting": "[27]", "value": 100, "unit": "%"}, {"measurement": "viability, T/C", "setting": "[28]", "value": 93.3, "unit": "%"}, {"measurement": "viability, T/C", "setting": "[29]", "value": 47.8, "unit": "%"}, {"measurement": "viability, T/C", "setting": "[30]", "value": 4.88, "unit": "%"}, {"measurement": "viability, T/C", "setting": "[31]", "value": 100, "unit": "%"}, {"measurement": "viability, T/C", "setting": "[32]", "value": 84.4, "unit": "%"}, {"measurement": "viability, T/C", "setting": "[33]", "value": 92.3, "unit": "%"}, {"measurement": "viability, T/C", "setting": "[34]", "value": 81.3, "unit": "%"}, {"measurement": "viability, T/C", "setting": "[35]", "value": 48.1, "unit": "%"}, {"measurement": "viability, T/C", "setting": "[36]", "value": 3.89, "unit": "%"}]}
